According to paper PMC8225905, “Activation and detoxification of cassava cyanogenic glucosides by the whitefly Bemisia tabaci” (Scientific Reports, 2021):

Test system: T1, BtSUC5
T1 construct: full-length ORF expressed in Drosophila S2 cells; secreted protein fraction (culture supernatant) assayed
Assay: LC-MS transglucosidation assay, S2 cell culture supernatant
Type: biochemical, Bemisia tabaci
Details: 1 M sucrose as glucosyl donor; phosphate buffer pH 7.0; 25 °C; 30 min; glucosyl acceptor

CC(C)(C#N)O[C@@H]1O[C@H](CO)[C@@H](O)[C@H](O)[C@H]1O [linamarin]
Km: ~500 µM
